Reference: patent US6552006B2, “Immunomodulatory polynucleotides in treatment of an infection by an intracellular pathogen” (The Regents of the University of California, priority 2000, dated 2003)

Legend:
[1] = tested on: IL-12 (p70); assay: Serum IL-12 (p70) by ELISA in mice; format: in vivo
Method: Serum obtained from M. avium-infected mice that received ISS or PBS was assayed for IFN-γ and IL-12 by ELISA using mouse IFN-γ and IL-12 (p70) ELISA kits (Endogen, Inc. Woburn, […]), respectively, and following the manufacturer's instructions.

[2] = tested on: M. avium; assay: Growth of M. avium in vivo in C57B1/6 mice, CFU per organ; design: species or system Mycobacterium avium; conditions: for viable bacteria in the lungs: week 2
[3] = tested on: M. avium; assay: Intracellular growth of M. avium in human monocyte-derived macrophages (hMDM) in vitro, CFU assay; format: cell-based, Mycobacterium avium; conditions: for enhancement of the anti-mycobacterial effect of clarithromycin: compared to antibiotic alone
Method: A previously studied M. avium strain 13 (Hayashi, et al. (1999) Infect. Immun. 67:3558-3565; Meylan, et al. (1990) Infect. Immun. 58:2564-2568), isolated from an AIDS patient at UCSD, San Diego, Calif., was used in all experiments. The organism was cultured on Middlebrook 7H11 agar (Difco Laboratories, Detroit, Mich.) with OADC enrichment at 37° C. in the presence of 5% CO2 for two weeks. Transparent colonies were selectively picked and further cultured on Middlebrook 7H11 plates for two more weeks. The resulting colonies, which were predominantly transparent (>90%), were then collected and washed two times with phosphate-buffered saline (PBS). The bacteria were finally resuspended in Middlebrook 7H9 broth (Difco Laboratories) and the OD600 of the suspension was adjusted to 0.15-0.2. The suspension was aliquoted and stored at −70° C. until use. The number of organisms/ml of this suspension was determined by the colony forming unit (CFU) assay.
The number of CFU in a given sample was determined by colony counting as described previously (Ogata, et al. (1992) Infect. Immun. 60:4720-4725). Serial 10-fold dilutions of total cell lysates or tissue homogenates were performed in PBS. 10 μl of each dilution were plated on Middlebrook 7H11 plates supplemented with OADC enrichment. The plates were incubated up to 14 days at 37° C. The number of colonies was counted every alternate day from day 10 onwards until no new colonies appeared. This yielded the number of CFU/10 μl. The number of CFU in each well was then calculated.
Monocytes were isolated from normal human buffy coats obtained from the San Diego Blood Bank by Ficoll-Hypaque and Percoll gradient centrifugation (Hayashi, et al. (1997) Infect. Immun. 65:5262-5271). Purity of the monocytes by this method was greater than 70%. The monocytes thus isolated were cultured for five to seven days in Iscove's Modified Dulbecco's Medium (BioWhittaker, Walkersville, Md.) supplemented with 10% normal human serum (Irvine Scientific, Santa Ana, Calif.), 2 mM L-glutamine and 50 units/ml penicillin-streptomycin in Teflon beakers to yield human monocyte-derived macrophages (hMDM). These hMDM were further enriched by adherence to the wells of tissue culture plates before use in experiments. Purity of hMDM after the second adherence assessed by esterase staining was >95%. Viability determined by trypan blue exclusion was >97%.
hMDM (6×10^4) were, adhered to the wells of 96-well tissue culture plates for two hours and non-adherent cells were removed by washing with warm RPMI-1640. Adherent cells were treated with ISS at 3, 10, or 30 μg/ml for 72 h before infection with M. avium. Cells treated with M-ODN at 10 μg/ml or with media alone served as controls. After 72 h, the cells were washed two times and infected with M. avium in RPMI-1640 supplemented with 5% heat-inactivated fetal bovine serum (FBS, Irvine Scientific) at a cell:bacteria ratio of 1:5-1:10. On days 1, 3 and 7 after infection, the total number of colony forming units (CFU) in each well was determined. The supernatant was collected and set aside and the adherent cells were lysed. To account for all the mycobacteria in each well, corresponding lysates and supernatants were combined and used to determine the number of CFU. Experiments were done in triplicate and results were expressed as mean±SD of CFU per well.
Alternatively, 5×10^4 mBMDM or hMDM was treated with ISS for 3 days before infection. Macrophages treated with M-ODN or with media alone served as controls. After 3 days, the cells were infected for 2 hrs with M. avium at a macrophage:bacteria ratio of 2:1 for mBMDM or of 1:10 for hMDM, and subsequently cultured in fresh media without antibiotics. To examine attachment and/or invasion of M. avium, the macrophages were lysed immediately after washing, and the number of bacteria were enumerated by the CFU assay. Intracellular growth of M. avium was determined on days 1, 3, and 7 after infection. […]

[4] = other experiments, data not shown
[5] = ISS 3 days before i.v. infection, 10^7 organisms/mouse, four weeks after infection, vs M-ODN and PBS mice

With “5′-TGACTGTGAACGTTCGAGATGA-3′ (SEQ ID NO:1) [ISS]” the “serum IL-12 levels” value ([1]; M. avium-infected mice (10^6 organisms/mouse), 2, 4, 6 weeks, below ELISA detection) was less than 5 pg/mL, the “time for serum IL-12 to attain basal levels post injection” value [1, 4] was no more than 3 weeks and the “time of peak serum level of IL-12 after administration” value [1, 4] was 1 days. For the same substance, the “growth of M. avium in the therapeutic model” value ([2]; C57B1/6 mice, 10^7 CFU i.v., ISS-ODN 50 μg/mouse alone one week after infection, 5 weeks after infection) was “did not inhibit the growth of M. avium”, the “viable bacteria in the lungs” value ([2]; ISS 100 μg/mouse i.d. 3 days before infection, 10^6 organisms/mouse, vs PBS) was “significantly lower number of viable bacteria” and the “difference of CFU in the lungs, controls vs ISS-treated mice” value [2, 5] was 1 log. For the same substance, the “difference of CFU in the spleen, controls vs ISS-treated mice” value [2, 5] was 2 logs, the “number of bacteria in the spleen” value ([2]; ISS i.d. 3 days before infection, 10^6 organisms/mouse, vs PBS, effects maximal at 4 weeks) was “almost two logs lower number of bacteria” and the “CFU in the spleen” value ([2]; ISS pretreatment, 10^6 organisms/mouse, week 6, vs PBS) was “equaled that observed in the control mice”. The “bacterial load in the lungs” value ([2]; ISS pretreatment, 10^6 organisms/mouse, week 6, vs control mice) was “exceeded that found in the lungs of control mice”, the “bacterial loads in the liver” value ([2]; ISS pretreatment, 10^6 organisms/mouse, weeks 2, 4, 6, vs PBS) was “no significant difference” and the “bacteria in the spleen” value ([2]; ISS prior to infection, 10^7 organisms/mouse, 4 weeks, vs PBS) was “nearly two logs less bacteria”. For the same substance, the “splenic CFU counts” value ([2]; ISS prior to infection, 10^7 organisms/mouse, 6 weeks, vs control) was “similar”, the “viable bacteria in the lungs” value ([2]; ISS prior to infection, 10^7 organisms/mouse, vs PBS) was “significantly lower number of viable bacteria” and the “mycobacterial loads in the liver” value ([2]; ISS prior to infection, 10^7 organisms/mouse, weeks 2, 4, 6, vs PBS) was “no significant difference”. For the same substance, the “persistence of the protective effect after administration” value ([2]; single injection of ISS, 10^6 organisms/mouse) was “up to four weeks”, the “decrease of intracellular growth of M. avium” value ([3]; established infection, infected hMDM treated with ISS 10 μg/ml for 7 days) was 53% and the “inhibition of intracellular growth of M. avium” value ([3]; hMDM (5×10^4/well) treated 3 days before infection, 7 days post-infection (FIG. 4A)) was 91%. The “inhibition of intracellular growth of M. avium” value ([3]; hMDM pretreated 72 h with 3 μg/ml ISS before infection, day 7, vs medium alone or M-ODN) was 91.3±1.7%, the “growth inhibition at the higher concentrations of ISS tested” value ([3]; hMDM pretreated with 10 or 30 μg/ml vs 3 μg/ml ISS) was “no further increase in growth inhibition” and the “inhibition of growth of M. avium” value ([3]; hMDM, ISS (10 µg/mL) immediately after infection (0 day), CFU at day 7, vs medium alone) was 53±18%. The “inhibition of growth of M. avium” value ([3]; hMDM, ISS (10 µg/mL) one day after infection (+1 day), CFU at day 7, vs medium alone) was 36±16%, the “inhibition of intracellular growth of M. avium” value ([3]; hMDM, ISS (10 µg/mL) pretreatment three days before infection (−3 days), CFU at day 7, vs medium alone) was 51±4% and the “inhibition of intracellular growth of M. avium” value ([3]; infected hMDM, ISS 10 μg/ml alone, day 7) was 38±7%. For the same substance, the “enhancement of the anti-mycobacterial effect of clarithromycin” value ([3]; infected hMDM, ISS 10 μg/ml with 1 μg/ml clarithromycin, day 7) was 89±5% and the “enhancement of the anti-mycobacterial effect of clarithromycin” value ([3]; infected hMDM, ISS 10 μg/ml with 4 μg/ml clarithromycin, day 7) was 63±12%.
